Values joined by “and” are separate entries in the source; they are usually repeats but may differ in a detail not shown here. Equal values may be shown once. Read-outs that look alike come from different tables or passages of the source.
Experiments:
[1] = target: T1, hCBS-413 (Homo sapiens, UniProt P35520); test: purified hCBS-413 enzyme assay (192-tandem-well plate, H2S detected with DTNB); type: biochemical
T1 construct: hCBS-413 (a C-terminal truncated hCBS 1–413); GST (N); made in house; host or cells: E. coli BL21
T1 sequence (P35520 1-413): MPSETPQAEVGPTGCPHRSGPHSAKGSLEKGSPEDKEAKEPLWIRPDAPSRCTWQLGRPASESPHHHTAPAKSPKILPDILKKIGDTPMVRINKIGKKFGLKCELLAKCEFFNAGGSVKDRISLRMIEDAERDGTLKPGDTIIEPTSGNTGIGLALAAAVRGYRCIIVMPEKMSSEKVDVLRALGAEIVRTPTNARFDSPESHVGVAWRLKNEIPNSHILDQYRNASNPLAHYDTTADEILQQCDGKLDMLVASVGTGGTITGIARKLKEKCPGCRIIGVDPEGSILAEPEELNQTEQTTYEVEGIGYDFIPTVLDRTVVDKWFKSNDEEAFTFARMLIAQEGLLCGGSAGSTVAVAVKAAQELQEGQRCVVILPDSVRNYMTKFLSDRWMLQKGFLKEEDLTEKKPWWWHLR
Procedure: Fig. 1 CH004 inhibits the activity of hCBS in the in vitro purified enzyme assays under different assay conditions. a A scheme for the cascade enzymatic reactions catalyzed by CBS or CSE. Cth, cystathionine. b, c Inhibitory effects of CH004 on the activity of hCBS-413 (b) or hCSE (c). The enzyme activities were monitored for various concentrations of CH004 under the standard conditions (50 mM Tris-HCl, pH 8.6; “Materials and Methods” section). The result is shown as percentages of the control (DMSO, 100%). The data are shown as means ± SDS (n = 3). d The dose-dependent inhibition of CH004 on the hCBS-413 activity was measured by the tandem-well-based assay under the standard conditions except using 50 mM Hepes buffer (pH 7.4) instead of 50 mM Tris-HCl (pH 8.6). Means ± SDs (n = 3). e The dose-dependent inhibition of CH004 on the CBS activity measured by methylene blue method. The CBS enzyme assay was performed with a 50 μl assay buffer in an Eppendorf tube under the standard assay conditions for the 192-tandem-well based assay, i.e., 50 μl 50 mM Tris-HCl buffer (pH 8.6) containing 150 nM hCBS-FL, 200 μM S-adenosyl-L-methionine, 4 mM L-Cys and 4 mM D,L-Hcys, in the presence of 0 (DMSO control), 0.01, 0.5, 1, 5, 10 or 100 μM CH004. After 80 min, the assay was stopped by added 10 μL 10% ZnAC and the generated H2S was quantified by N,N-dimethyl-p-phenylenediamine to give an absorbance at 670 nm (for details, see Materials and Methods section; ref. [53]).
The IC50 values of CH004 for hCBS-413, hCBS-413 mutants, hCBS-FL, hCSE or hDDC were determined according to the standard assay conditions otherwise indicated.
Table S2. Inhibitory effects of CH004 on hCBS WT and mutants.

[2] = tested on: HepG2 cells; test: total Hcys in HepG2 cells (ELISA); type: cell-based, human; details: 5 or 10 μM, 12 h
Procedure: Fig. 3 The effect of CH004 on the activity of endogenous hCBS in cells. a CH004 dose-dependently elevates the levels of Hcys in HepG2 and HEK293T cells. HepG2 cells or HEK293T cells were incubated with indicated CH004 or DMSO (control) for 12 h. The amount of total Hcys in cells was measured by ELISA using Axis® Homocysteine EIA kit (IBL, AX51301) (“Materials and Methods” section). […] HepG2 cells were treated with indicated DMSO, CH004 or HA for 8 h before the staining with AzMC probe. The amount of the H2S (blue) was quantified and is shown in (c). Bars, 50 μm. Control (CTR), DMSO group (100%). A representative fluorescence image from three independent experiments is shown. Means ± SDS (n = 3). d CH004 elevates Hcys in the peripheral blood of rats. The total Hcys of the blood samples collected from the anesthetized rats at the 75 min time point (Materials and Methods) were quantified by ELISA (see above). Means ± SDS (n = 6).
HepG2 or HEK293T cells were seeded in poly-D-Lys-coated 6-well plates at a density of ∼ 5 × 10^5 cells per well for one day, treated with DMSO or various concentrations of compounds for another 12 h before the collection by scraping or trypsinization. […]

Cn1nc(Cc2ccccc2)nc2c(=O)n(C)c(=O)nc1-2 [CH004, 3-benzyl-1,6-dimethylpyrimido[5,4-e][1,2,4]triazine-5,7(1H,6H)-dione]
IC50 ([1]; 150 nM purified CBS, 4 mM Hcys, 4 mM Cys, 50 mM Tris-HCl pH 8.6 (Table S2), read-out: IC50 hCBS WT): 1200 ± 50 nM | IC50 fold to WT, hCBS WT ([1]; Table S2): 1 | IC50 ([1]; hCBS-413, 50 mM Hepes buffer pH 7.4 instead of Tris-HCl pH 8.6, read-out: IC50 on hCBS (Hepes; pH 7.4)): 1100 ± 170 nM | IC50 ([1]; standard conditions, 50 mM Tris-HCl pH 8.6, read-out: IC50 on hCBS-413): ~1000 nM and 1000 nM | increase of Hcys [2]: ~ 2 fold
